Test results published in patent US4032633A, “Polypeptides” (Imperial Chemical Industries Limited, priority 1974, dated 1977).

Test system: secretion of acidic gastric juice stimulated with histamine
Assay: Inhibition of histamine-stimulated secretion of acidic gastric juice in dogs with a Heidenhain pouch, single intravenous injection
Type: in vivo, dog
Details: column fractions or products assayed in histamine-stimulated pouch dogs
Procedure: This test is used to determine the biological potency of the products, which is defined as the amount of the product expressed in μg./kg. which, on administration by intravenous injection to a dog provided with a Heidenhain pouch and whose secretion of gastric acid is stimulated to 60-89% of the maximum level of secretion by an infusion of histamine, causes a 50-70% inhibition of that acid secretion. Some variation in the biological potency of a particular sample is found if it is measured in different dogs and on different occasions, and so the result is best expressed as a dose range. The physiological effect of inhibiting the secretion of acidic gastric juice is of value in the treatment of duodenal ulcers, and under the test conditions, no serious toxic effects were observed. The polypeptides also show ulcer healing properties in a standard test. […]
Dogs were prepared with separated denervated fundic pouches, and a subcutaneous infusion of histamine was used to stimulate gastric secretion to approximately 60-80% of the maximal rate [usually an infusion of a solution of 600 μg. of histamine (expressed as base) in 0.48 ml. per hour was adequate]. […]
The specific activity may be determined from the results obtained for several different doses.

Substance | biological activity (inhibition of gastric secretion), in words
material in fractions 38-52: hexapeptide liberated from β-urogastrone: Glu 1, Leu 1, Lys 1, Trp 2, Arg 1, lysine at the N-terminus (KWWELR; Epidermal growth factor; UniProt P01133 1018-1023, looked up, fragment) | biologically inactive
material in fractions 49-65: pentapeptide liberated from γ-urogastrone: Glu 1, Leu 1, Lys 1, Trp 2, lysine at the N-terminus (KWWEL; Epidermal growth factor; UniProt P01133 1018-1022, looked up, fragment) | biologically inactive
